The record followed here is patent publication US12653856B2, “Gynostemma pentaphyllum tea or Gynostemma pentaphyllum tea extract containing gypenoside L and gypenoside LI and antiobesity use thereof” (BIONIC TRADING CORPORATION, priority 2021, dated 2026).

For this experiment, the system named is male ICR mice on high-fat feed. In words: Body fat and body weight reduction in mice given high-fat feed. The following applies: extracts 300 mg/kg. The format is in vivo, mouse. An excerpt: As experimental animals, 4-week-old male ICR mice were purchased from Orient Bio and acclimated for a week. Each group consisted of 10 animals. For a normal diet group (G1) and high-fat diet groups (G2 to G6), normal feed (energy ratio (kcal %); protein:carbohydrate:fat=20:70:10) or high-fat feed (energy ratio (kcal %); protein:carbohydrate:fat=20:20:60) purchased from Research Diets, Inc. (New Brunswick, NJ, USA) was provided, respectively. The feed and water were allowed freely. The specific compositions of the normal feed and the high-fat feed are described in Table 6. The test substance was administered orally at regular intervals for 8 weeks by dissolving in physiological saline (G3 to G6). For G1 and G2, physiological saline containing no test substance was administered orally. The experimental animal breeding room was maintained at 12-hour lighting cycles under the condition of 23±3° C., 50 t 10% relative humidity and 10-15 ventilations/hour. The animal experiment was conducted in accordance with the regulations of the Hallym University Institutional Animal Care and Use Committee (Hallym 2018-31). The experimental animals were divided into […]: normal group (G) to which normal feed was given for 6 weeks; control group (G2) to which high-fat feed was given; G3 to which high-fat feed was given and 300 mg/kg of the Gynostemma pentaphyllum tea extract of Example was administered; G4 to which 300 mg/kg of the Gynostemma pentaphyllum tea extract of Comparative Example was administered; G5 to which 300 mg/kg of the Gynostemma pentaphyllum tea extract of Comparative Example 2 was administered; G6 to which 300 mg/kg of the Gynostemma pentaphyllum tea extract of Comparative Example 3 was administered; […] The composition of the test groups is described specifically in Table 7. Initial body weight, final body weight, total body weight gain, feed intake, body fat percentage and feed efficiency ratio (FER) were measured while providing the feed specified in 6-2 to each test group for 8 weeks. Specifically, the body weight was measured using a digital scale once a week at the same time. The feed efficiency ratio (FER) was calculated by the following equation. The result of investigating the initial body weight, final body weight, total body weight gain, feed intake, body fat percentage and feed efficiency ratio for 8 weeks is given in Table 8. Feed efficiency ratio (FER)=body weight gain (g)/feed intake (g) [Equation]

The mark [1] stands for this setting: high-fat feed, 8 weeks oral, orlistat 30 mg/kg.

Marks after values point to notes of the source that are not given here.

With `CCCCCCCCCCC[C@@H](C[C@@H]1OC(=O)[C@H]1CCCCCC)OC(=O)[C@H](CC(C)C)NC=O` [Orlistat, orlistat], the “Initial body weight” value (baseline, high-fat feed ICR mice, orlistat 30 mg/kg oral) is recorded as 21.7 ± 0.2 g. The “Feed efficiency ratio (FER)” value (body weight gain (g)/feed intake (g), high-fat feed, 8 weeks oral, orlistat 30 mg/kg) is given as 0.126 ± 0.005. Besides, under setting [1], the “Body fat percentage (%)” value is given as 36.6 ± 0.7 %, the “Body weight gain (%)” value is listed as 70.97* %, the “Final body weight” value was determined as 37.1 ± 0.6 g and the “Total body weight gain” value turned out to be 15.4 ± 0.2 g. In addition, the “Total feed intake” value under setting [1] came out at 122.4 ± 0.3 g.
